US6395256B1 (priority 1997, dated 2002)
pEC50: −log10 of the molar value. Several values for one entry are separate records, joined by “and”; a condition that tells them apart may be missing. Equal entries are not always repeated. Where two headings read alike, the source gives them in different places.

Legend:
active SAH hydrolase = molecular target: T1, active SAH hydrolase (Bos taurus, UniProt Q3MHL4); test: 3H-adenosine displacement using active SAH hydrolase; format: binding, bovine
T1 construct: SAH hydrolase is purified with classical chromatographical methods to homogeneity from organs e.g. from bovine kidney; from tissue; host or cells: bovine kidney
T1 sequence (Q3MHL4 2-432 limits assumed): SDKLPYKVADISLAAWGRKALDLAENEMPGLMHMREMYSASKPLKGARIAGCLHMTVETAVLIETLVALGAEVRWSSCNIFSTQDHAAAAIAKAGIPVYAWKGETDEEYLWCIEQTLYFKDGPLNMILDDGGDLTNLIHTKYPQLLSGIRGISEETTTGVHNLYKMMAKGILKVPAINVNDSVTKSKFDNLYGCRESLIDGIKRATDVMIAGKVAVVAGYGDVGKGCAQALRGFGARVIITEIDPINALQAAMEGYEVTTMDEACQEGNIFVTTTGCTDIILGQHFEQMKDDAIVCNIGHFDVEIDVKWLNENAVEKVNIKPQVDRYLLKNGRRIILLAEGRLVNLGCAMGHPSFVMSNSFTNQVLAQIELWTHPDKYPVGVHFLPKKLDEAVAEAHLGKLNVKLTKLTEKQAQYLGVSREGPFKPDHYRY
Description: SAH hydrolase is purified with classical chromatographical methods to homogeneity from organs e.g. from bovine kidney. Fresh bovine kidney (450 g), obtained from the local slaughterhouse were homogenized in two volumes of 50 mM potassium phosphate buffer pH 7.0, 1 mM DTT, 1 mM EDTA and 10 mM PMSF. The homogenate was centrifuged at 20000×g for 60 min. […] After centrifugation at 20000×g for 30 min the precipitate was disolved in 300-400 ml 20 mM Tris/HCl pH 7.5, 1 mM DTT and 1 mM EDTA and dialyzed against the same buffer.

reduced SAH hydrolase = molecular target: T2, reduced SAH hydrolase (Bos taurus, UniProt Q3MHL4); test: 3H-adenosine displacement using reduced SAH hydrolase; format: binding, bovine
T2 construct: SAH hydrolase is purified with classical chromatographical methods to homogeneity from organs e.g. from bovine kidney; from tissue; host or cells: bovine kidney
T2 sequence (Q3MHL4 2-432 limits assumed): T1 sequence (Q3MHL4 2-432 limits assumed)
Description: 100 μl reduced SAH hydrolase (1 μg/300 μl)
50 μl buffer—20 mM Tris, 40 mM Hepes pH 7.0
Therefore the samples are incubated over night. The assay mixture is separated through nitrocellulose filters with a filtration equipment.

[1] = active SAH hydrolase, read-out: EC50 values of 3H-adenosine displacement, active SAH hydrolase
[2] = reduced SAH hydrolase, read-out: EC50 values of 3H-adenosine displacement, reduced SAH hydrolase

pEC50 (active SAH hydrolase; [1])	pEC50 (reduced SAH hydrolase; [2])	Compound	pEC50 (active SAH hydrolase)	pEC50 (reduced SAH hydrolase)
7.03	6.20	Nc1ncnc2c1ncn2[C@H]1C[C@H](O)[C@@H](CO)O1 [2′-deoxyadenosine]	–	–
5.00	< 4.00	Nc1ncnc2c1ncn2[C@@H]1O[C@H](COP(=O)(O)OP(=O)(O)O)[C@@H](O)[C@H]1O [ADP]	–	–
5.00	4.00 and < 4.00	Nc1ncnc2c1ncn2[C@@H]1O[C@H](COP(=O)(O)O)[C@@H](O)[C@H]1O [AMP]	–	–
6.61	6.40	Nc1ncnc2c1ncn2[C@@H]1O[C@H](CSCC[C@H](N)C(=O)O)[C@@H](O)[C@H]1O [SAH, S-adenosylhomocysteine]	–	–
4.94	< 4.00	Nc1ncnc2nc[nH]c12 [adenine]	–	–
5.30	5.30	N[C@@H](CCS)C(=O)O [homocysteine]	–	–
5.00	5.00	OC[C@H]1O[C@@H](n2cnc3c(O)ncnc32)[C@H](O)[C@@H]1O [inosine]	–	–
–	–	Cn1c(=O)c2[nH]cnc2n(C)c1=O [theophylline]	< 4.00	< 4.00
6.74	5.00	diadenosine-dialdehyde	–	–

Compound	pEC50 (active SAH hydrolase; [1])	pEC50 (reduced SAH hydrolase; [2])	pEC50 (active SAH hydrolase)	pEC50 (reduced SAH hydrolase)
CCNC(=O)[C@H]1O[C@@H](n2cnc3c(N)ncnc32)[C@H](O)[C@@H]1O [NECA]	6.62	< 4.00	–	–
